From patent US20230257383A1, “COMPOUND SERVING AS BTK INHIBITOR, PREPARATION METHOD THEREFOR, AND USE THEREOF” (CHENGDU HYPERWAY PHARMACEUTICALS CO., LTD., priority 2020, published 2023)

Tests used:
[1] = Liver microsome metabolic stability test (human); format: in vitro ADME; details: for microsomal CLint: liver microsomes, read-out: CLint (μL/min/mg) Human
Protocol: (§1) 1: To the sample wells of T0, T5, T10, T20, T30, T60 and NCF60, 10 μL of the test or reference working solution and 80 μL of microsome working solution (hepatic microsome with a protein concentration of 0.5 mg/mL) were added, and to Blank60 well, only the microsome working solution was added. Then samples of the Blank60, T5, T10, T20, T30 and T60 other than TO and NCF60 were placed in a 37° C. water bath and pre-incubated for about 10 min.
(§2) 2: To the TO sample well, 300 μL of stop solution (containing 200 ng/mL tolbutamide and 200 ng/mL labetalol in acetonitrile solution) was added first, followed by 10 μL of NADPH regeneration system working solution.
(§3) 3: After the pre-incubation of Blank60, T5, T10, T20, T30 and T60 incubation plates, 10 μL of NADPH regeneration system working solution was added to each sample well to start the reaction, and 10 μL of 100 mM potassium phosphate buffer was added to the NCF60 sample well.
(§4) 4: After incubation for an appropriate time (such as 5, 10, 20, 30 and 60 min), to each test sample well and control well of the Blank60, T5, T10, T20, T30, T60 and NCF60 plates, 300 μL of stop solution was added to terminate the reaction.
(§5) 5: All sample plates were shaken to mix well and centrifuged at 4000 rpm for 20 min, and 100 μL of the supernatant of the test sample or control sample was taken and diluted with 300 μL of pure water for LC-MS/MS analysis.
(§6) 6: Data analysis: T1/2 and CLint(mic) (μL/min/mg) values were calculated according to the first-order elimination kinetics. The first-order elimination kinetics equation was: […]

[2] = Liver microsome metabolic stability test (rat); format: in vitro ADME; details: for microsomal CLint: liver microsomes, read-out: CLint (μL/min/mg) Rat
Protocol: as §1, §2, §3, §4, §5, §6

[3] = Pharmacokinetic test, oral, SD rats; format: in vivo; details: oral 10 mg/kg
Protocol: Each test compound was administered orally (10 mg/kg, 3 rats in each group) to SD rats for pharmacokinetic study. […] Animals were fasted overnight before oral administration, and fed again after 4 h of administration. […] At each collection time point, 3 whole blood samples were collected at a the collection volume of about 0.2-0.3 mL. […] The collected plasma was stored at −20° C. before analysis. 20 μL of plasma sample was added into a 1.6 mL 96-well deep-well plate, added with 200 μL of working internal standard solution (the same volume of vehicle was added to the blank instead of internal standard), vortexed for 1 min, and centrifuged at 5800 rpm for 10 min. 100 μL of the supernatant was added to a 96-well injection plate for LC-MS/MS analysis.

TMD8 cell proliferation = test: In vitro cell proliferation inhibitory activity test (CTG), TMD8; format: cell-based; details: Homo sapiens, TMD8, 72 h, TMD8 cells
Protocol: (§7) Test Example 4: In Vitro Cell Proliferation Inhibitory Activity Test
(§8) Cells were cultured in 1640 medium, added with 10% inactivated FBS and 1% double antibiotics, and cultured at 37° C. and 5% CO2.
(§9) (1) Cells were routinely cultured until the cell density was 80%-90%, and the cells were harvested when their number reached the requirement.
(§10) (2) Cells were resuspended with corresponding culture medium, counted, and prepared into cell suspension at appropriate density.
(§11) (3) The cell suspension was added to a 96-well plate, 100 μL per well.
(§12) (4) Cells were cultured overnight in a 37° C., 5% CO2 incubator.
(§13) (1) The compounds to be tested were diluted with DMSO to make a stock solution with a final concentration of 20 mM for later use.
(§14) (2) The stock solution was diluted 10 times from 20 mM to 2 mM with DMSO, and then diluted 3 times from 2 mM to 9 concentrations.
(§15) (3) The blank control wells were cells plus 0.5% DMSO, as high-reading control wells.
(§16) (4) Wells with no cells and only medium were used as low-reading control wells.
(§17) 4: Cell treatment with compound
(§18) (1) 24 h after the cells were plated, the compounds acted alone, and 99 μL of growth medium was added to each well, followed by 1 μL of the compound prepared in step 3. The plate was shaken gently to mix uniformly, and then placed in a 37° C., 5% CO2 incubator.
(§19) (2) The cell plate was placed in an incubator for 72 h.
(§20) 5: Detection by CTG method
(§21) (1) The cell plate to be tested was placed at room temperature for 30 min, and 100 μL of medium was discarded from each well.
(§22) (2) 100 μL of CTG reagent (CelltiterGlo kit) was added to each well, placed on a fast shaker for 2 min, and stood at room temperature in the dark for 30 min.
(§23) (3) The chemiluminescent signal value was read with the Envision instrument.
(§24) IC50 was calculated by using GraphPad Prism 8 software. The IC50 (half inhibitory concentration) of the compound was derived using the following nonlinear fitting formula, and the results are shown in the following table:
(§25) Y=Bottom+(Top−Bottom)/(1+10^((Log IC50−X)×HillSlope))
(§26) X: log value of compound concentration, Y: inhibition rate (% inhibition)
(§27) Inhibition rate (% inhibition)=(reading of high-reading control well-reading of compound well)/(reading of high-reading control well-reading of low-reading control well)×100

DOHH2 cell proliferation = test: In vitro cell proliferation inhibitory activity test (CTG), DOHH2; format: cell-based; details: Homo sapiens, DOHH-2
Protocol: as §7, §8, §9, §10, §11, §12, §13, §14, §15, §16, §17, §18, §19, §20, §21, §22, §23, §24, §25, §26, §27

BT474 cell proliferation = test: In vitro cell proliferation inhibitory activity test (CTG), BT474; format: cell-based; details: Homo sapiens, BT-474, BT474 cell proliferation
Protocol: as §7, §8, §9, §10, §11, §12, §13, §14, §15, §16, §17, §18, §19, §20, §21, §22, §23, §24, §25, §26, §27

Structure (SMILES) | microsomal CLint [1] [µL/min/mg] | microsomal CLint [2] [µL/min/mg] | IC50 (BT474 cell proliferation) [nM] | other results
Nc1nccn2c([C@@H]3CC[C@H](CO)OC3)nc(-c3ccc(C(=O)Nc4ccccn4)cc3)c12 (single isomer, unassigned) [Example 2-A-P1] |  |  |  | CLint (μL/min/mg) Human [1]: <9.6 µL/min/mg; % Remaining (60 min) Human [1]: 122.5%; CLint (μL/min/mg) Rat [2]: <9.6 µL/min/mg; % Remaining (60 min) Rat [2]: 95.5%; AUC(0-∞) [3]: 77004 ng·h/mL
COc1ccccc1C(=O)NCc1ccc(-c2nn(C3CCC(CO)OC3)c3ncnc(N)c23)cc1 (single isomer, unassigned) [Example 60-B] |  |  |  | Cl [3]: 188.82 mL/min/kg
Nc1nccn2c(C3CCC(CO)OC3)nc(-c3ccc(C(=O)Nc4cc(C(F)(F)F)ccn4)cc3)c12 (single isomer, unassigned) [Example 109-P1] |  |  |  | IC50 (TMD8 cell proliferation): 12.2 nM
O=C(c1ccc(Oc2ccccc2)cc1Cl)c1c[nH]c2ncnc(N[C@@H]3CC[C@@H](CO)OC3)c12 [ARQ-531, reference compound] | < 9.6 | < 9.6 |  | IC50 (DOHH2 cell proliferation): 174 nM; IC50 (TMD8 cell proliferation): 74.6 nM
Nc1nccn2c(C3CC[C@@H](CO)OC3)nc(-c3ccc(C(=O)Nc4ccccn4)cc3F)c12 (some centres unmarked) [Example 1-B] |  |  |  | CLint (μL/min/mg) Human [1]: <9.6 µL/min/mg; % Remaining (60 min) Human [1]: 99.9%; CLint (μL/min/mg) Rat [2]: 18.2 µL/min/mg; % Remaining (60 min) Rat [2]: 63.7%
COc1cccc(Oc2ccc(-c3nc(C4CCC(CO)OC4)n4ccnc(N)c34)cc2)c1F (centres unmarked) [Example 5] | 38.8 | 122 |  | 
Nc1nccn2c(C3CCC(CO)OC3)nc(-c3ccc(Oc4cccc(F)c4F)cc3)c12 (centres unmarked) [Example 8] | 33.9 | 66.5 |  | 
Nc1nccn2c(C3CCC(CO)OC3)nc(-c3ccc(Oc4cccc(Cl)c4F)cc3)c12 (centres unmarked) [Example 9] | 48.4 | 114 |  | % Remaining (60 min) Human [1]: 24.5%; % Remaining (60 min) Rat [2]: 3.2%
COc1cccc(Oc2ccc(-c3nc(C4CCC(CO)OC4)n4c(Cl)cnc(N)c34)cc2)c1F (centres unmarked) [Example 12] | 124 | 118 |  | % Remaining (60 min) Human [1]: 2.6%; % Remaining (60 min) Rat [2]: 3.0%
Nc1nccn2c(C3CCC(CO)OC3)nc(-c3ccc(Oc4ccccc4)cc3)c12 (centres unmarked) [Example 16] | 36.9 | 63.9 |  | % Remaining (60 min) Human [1]: 31.8%; % Remaining (60 min) Rat [2]: 14.6%
Nc1nccn2c(C3CCC(CO)OC3)nc(-c3ccc(Oc4cccc(C(F)(F)F)c4F)cc3)c12 (centres unmarked) [Example 19] | 47.1 | 83.1 |  | 
Cc1cccc(Oc2ccc(-c3nc(C4CCC(CO)OC4)n4ccnc(N)c34)cc2)c1F (centres unmarked) [Example 24] | 74.9 | 255 |  | 
Nc1nccn2c(C3CCC(CO)OC3)nc(-c3ccc(C(=O)c4ccccc4)cc3)c12 (centres unmarked) [Example 26] | 31.1 | 46.1 |  | 
Nc1nccn2c(C34CCC(CO)(CC3)OC4)nc(-c3ccc(C(=O)Nc4ccccn4)cc3)c12 [Example 34] | < 9.6 | < 9.6 |  | IC50 (TMD8 cell proliferation): 56.9 nM
Nc1nccn2c(C3CCC(CO)OC3)nc(-c3ccc(Oc4c(F)cccc4F)cc3)c12 (centres unmarked) [Example 64] | 36.8 | 81.6 |  | 
Cc1ccnc(NC(=O)c2ccc(-c3nc(C4CCC(CO)OC4)n4ccnc(N)c34)cc2)c1 (centres unmarked) [Example 70] | 13.2 | 30.3 |  | 
COc1cccc(Oc2ccc(-c3nc(C4CCC(CO)OC4)n4ccnc(N)c34)cc2)c1 (centres unmarked) [Example 101] | < 9.6 | 29.8 |  | 
N#Cc1ccnc(NC(=O)c2ccc(-c3nc(C4CCC(CO)OC4)n4ccnc(N)c34)cc2)c1 (centres unmarked) [Example 103] | < 9.6 | < 9.6 |  | IC50 (TMD8 cell proliferation): 25.1 nM; Cl [3]: 16.67 mL/min/kg

Structure (SMILES) | microsomal CLint [1] [µL/min/mg] | microsomal CLint [2] [µL/min/mg] | IC50 (BT474 cell proliferation) [nM] | other results
Nc1nccn2c(C3CCC(CO)OC3)nc(-c3ccc(Cc4ccccc4)cc3)c12 (centres unmarked) [Example 106] | 13.1 | 29.5 |  | IC50 (TMD8 cell proliferation): 49.5 nM
Nc1nccn2c(C3CCC(CO)OC3)nc(-c3ccc(C(F)(F)c4ccccc4)cc3)c12 (centres unmarked) [Example 111] | 10.9 | 26.1 |  | 
Nc1nccn2c(C34CCC(CO)(CC3)OC4)nc(-c3ccc(C(F)(F)c4ccccc4)cc3F)c12 [Example 114] |  |  | 173 | 
COc1cccc(Oc2ccc(-c3nc(C45CCC(CO)(CC4)OC5)n4ccnc(N)c34)c(F)c2)c1C#N [Example 115] |  |  |  | IC50 (TMD8 cell proliferation): 6.1 nM
COc1cccc(C(F)(F)c2ccc(-c3nc(C45CCC(CO)(CC4)OC5)n4ccnc(N)c34)cc2)c1F [Example 129] |  |  | 208 | 
Cc1cccc(C(F)(F)c2ccc(-c3nc(C45CCC(CO)(CC4)OC5)n4ccnc(N)c34)cc2)c1F [Example 139] |  |  | 209 | 
Nc1nccn2c(C34CCC(CO)(CC3)OC4)nc(-c3ccc(C(F)(F)c4ccc(F)c(Cl)c4)cc3)c12 [Example 140] |  |  | 504 | 
Nc1nccn2c(C34CCC(CO)(CC3)OC4)nc(-c3ccc(C(F)(F)c4cccc(C5CC5)c4)cc3)c12 [Example 143] |  |  | 467 | 
Nc1nccn2c(C34CCC(CO)(CC3)OC4)nc(-c3ccc(C(F)(F)c4c(F)c(F)cc(F)c4F)cc3)c12 [Example 144] |  |  | 191 | 
Cc1c(F)cccc1C(F)(F)c1ccc(-c2nc(C34CCC(CO)(CC3)OC4)n3ccnc(N)c23)cc1 [Example 147] |  |  | 377 | 
Nc1nccn2c(C34CCC(CO)(CC3)OC4)nc(-c3ccc(C(F)(F)c4c(F)cccc4F)cc3)c12 [Example 153] |  |  | 121 | 
Nc1nccn2c(C34CCC(CO)(CC3)OC4)nc(-c3ccc(C(F)(F)c4ccccc4F)c(F)c3)c12 [Example 156] |  |  | 269 | 
Nc1nccn2c(C34CCC(CO)(CC3)OC4)nc(-c3ccc(C(O)(c4ccccc4)C(F)(F)F)cc3)c12 (centres unmarked) [Example 157] |  |  | 2270 | 
Nc1nccn2c(C34CCC(CO)(CC3)OC4)nc(-c3ccc(C(F)(c4ccccc4)C(F)(F)F)cc3)c12 (centres unmarked) [Example 158] |  |  | 4950 | 
Nc1nccn2c(C34CCC(CO)(CC3)OC4)nc(-c3ccc(C(c4ccccc4)(C(F)(F)F)C(F)(F)F)cc3)c12 [Example 159] |  |  | > 1000 | 
COc1ccc(F)cc1C(=O)NCc1ccc(-c2nn([C@@H](C)C(F)(F)F)c(N)c2C(N)=O)cc1 [LOXO-305] |  |  |  | IC50 (DOHH2 cell proliferation): 4990 nM; IC50 (TMD8 cell proliferation): 184 nM
CS(=O)(=O)CCNCc1ccc(-c2ccc3ncnc(Nc4ccc(OCc5cccc(F)c5)c(Cl)c4)c3c2)o1 [Lapatinib] |  |  | 55.2 | 
